Measured values from PMC12238723, “Phase I Clinical Trial of CVL218, a Novel PARP1/2 Inhibitor, in Patients with Advanced Solid Tumors” (MedComm, 2025).

Test system: advanced solid tumors
Test: Antitumor activity, tumor response per RECIST 1.1 and PFS
Assay type: in vivo, patients
Text: This study was a single‐arm, dose‐escalation phase I trial conducted in Sun Yat‐sen University Cancer Center in China. This study assessed CVL218 in patients with histologically or cytologically confirmed advanced solid tumors who were in PD after standard therapeutic regimens or lacked standard treatment options. Inclusion criteria included: age 18–75 years; with at least one measurable and evaluable target lesion per Response Evaluation Criteria in Solid Tumors 1.1 (RECIST 1.1); ECOG performance status of 0 or 1; adequate hematological, renal, cardiac, and hepatic functions and a life expectancy ≥12 weeks. Key exclusion criteria included prior usage of PARP inhibitors; allergic to the research drug or its components; with active, unstable systemic diseases or active, uncontrolled infection; a history of other malignancies within 5 years, and pregnant or lactating women.
Single‐dose and multiple‐dose PK parameters included C max, T max, elimination half‐life (T 1/2), AUC0– t , AUC0–inf, oral clearance (CL/F), and apparent volume of distribution (V z/F) for CVL218. Tumor response was assessed per RECIST 1.1. ORR was defined as proportion of patients with a CR or PR on at least one visit, while DCR was defined as proportion of patients with a CR or PR or SD. PFS was defined as the time from the first dose of either drug to investigator assessed radiologic PD or to death of any cause. PFS would be censored at the time of last tumor assessment.
Subjects who received at least one dose of CVL218 with postadministration safety records were included in safety analysis set. Subjects who received at least one dose of CVL218 with at least one evaluable PK parameter were included in PK analysis set. Per‐protocol set were used for efficacy analysis. Descriptive statistics of safety were presented per CTCAE v5.0. The PK parameters T max and T 1/2 were shown as the median (min, max) and mean ± SD, respectively. A two‐sided p < 0.05 was considered to indicate statistical significance. Statistical analysis was performed by using GraphPad prism 8.0.2 and R‐4.3.3.

Q: With `CNCc1ccc(-c2cc3cc(F)cc(C(N)=O)c3o2)cc1.Cl` [CVL218] as the molecule, how does the “BOR, CR” value (50 mg BID (N = 1)) read?
A: 0 n (%)

Q: What about the “BOR, PD” value (50 mg BID (N = 1)) of the same molecule?
A: 1 (100) n (%)

Q: And the “BOR, PR” value (50 mg BID (N = 1))?
A: 0 n (%)

Q: What about the DCR (50 mg BID (N = 1)) of the same molecule?
A: 0 (0, 97.50) n (%) (95%CI)

Q: What about the ORR (50 mg BID (N = 1)) of the same molecule?
A: 0 (0, 97.5) n (%) (95%CI)

Q: What about the mPFS (50 mg BID (N = 1)) of the same molecule?
A: 1.05 months

Q: And the “BOR, CR” value (100 mg BID (N = 1))?
A: 0 n (%)

Q: And the “BOR, PD” value (100 mg BID (N = 1))?
A: 1 (100) n (%)

Q: What about the “BOR, PR” value (100 mg BID (N = 1)) of the same molecule?
A: 0 n (%)

Q: What about the DCR (100 mg BID (N = 1)) of the same molecule?
A: 0 (0, 97.50) n (%) (95%CI)

Q: What about the ORR (100 mg BID (N = 1)) of the same molecule?
A: 0 (0, 97.5) n (%) (95%CI)

Q: What about the mPFS (100 mg BID (N = 1)) of the same molecule?
A: 1.05 months

Q: What about the “BOR, CR” value (200 mg BID (N = 1)) of the same molecule?
A: 0 n (%)

Q: And the “BOR, PD” value (200 mg BID (N = 1))?
A: 0 n (%)

Q: What about the “BOR, PR” value (200 mg BID (N = 1)) of the same molecule?
A: 0 n (%)

Q: And the DCR (200 mg BID (N = 1))?
A: 1 (100) (2.5, 100.0) n (%) (95%CI)

Q: What about the ORR (200 mg BID (N = 1)) of the same molecule?
A: 0 (0, 97.5) n (%) (95%CI)

Q: And the mPFS (200 mg BID (N = 1))?
A: 1.97 months

Q: And the “BOR, CR” value (350 mg BID (N = 4))?
A: 0 n (%)

Q: What about the “BOR, PD” value (350 mg BID (N = 4)) of the same molecule?
A: 1 (25.0) n (%)

Q: What about the “BOR, PR” value (350 mg BID (N = 4)) of the same molecule?
A: 0 n (%)

Q: What about the DCR (350 mg BID (N = 4)) of the same molecule?
A: 3 (75.0) (19.4, 99.4) n (%) (95%CI)

Q: What about the ORR (350 mg BID (N = 4)) of the same molecule?
A: 0 (0, 60.2) n (%) (95%CI)

Q: And the mPFS (350 mg BID (N = 4))?
A: 2.34 months

Q: What about the “BOR, CR” value (500 mg BID (N = 4)) of the same molecule?
A: 0 n (%)

Q: What about the “BOR, PD” value (500 mg BID (N = 4)) of the same molecule?
A: 1 (25.0) n (%)

Q: And the “BOR, PR” value (500 mg BID (N = 4))?
A: 0 n (%)

Q: And the DCR (500 mg BID (N = 4))?
A: 3 (75.0) (19.4, 99.4) n (%) (95%CI)

Q: And the ORR (500 mg BID (N = 4))?
A: 0 (0, 60.2) n (%) (95%CI)

Q: What about the mPFS (500 mg BID (N = 4)) of the same molecule?
A: 3.27 months

Q: And the “BOR, CR” value (600 mg BID (N = 3))?
A: 0 n (%)

Q: What about the “BOR, PD” value (600 mg BID (N = 3)) of the same molecule?
A: 3 (100) n (%)

Q: And the “BOR, PR” value (600 mg BID (N = 3))?
A: 0 n (%)

Q: What about the DCR (600 mg BID (N = 3)) of the same molecule?
A: 0 (0, 70.8) n (%) (95%CI)

Q: And the ORR (600 mg BID (N = 3))?
A: 0 (0, 70.8) n (%) (95%CI)

Q: And the mPFS (600 mg BID (N = 3))?
A: 1.02 months

Q: And the “BOR, CR” value (700 mg BID (N = 6))?
A: 0 n (%)

Q: What about the “BOR, PD” value (700 mg BID (N = 6)) of the same molecule?
A: 0 n (%)

Q: What about the “BOR, PR” value (700 mg BID (N = 6)) of the same molecule?
A: 0 n (%)

Q: What about the DCR (700 mg BID (N = 6)) of the same molecule?
A: 6 (100) (54.1, 100.0) n (%) (95%CI)

Q: And the ORR (700 mg BID (N = 6))?
A: 0 (0, 45.9) n (%) (95%CI)

Q: And the mPFS (700 mg BID (N = 6))?
A: 2.27 months

Q: And the “BOR, CR” value (850 mg BID (N = 4))?
A: 0 n (%)

Q: What about the “BOR, PD” value (850 mg BID (N = 4)) of the same molecule?
A: 0 n (%)

Q: What about the “BOR, PR” value (850 mg BID (N = 4)) of the same molecule?
A: 0 n (%)

Q: And the DCR (850 mg BID (N = 4))?
A: 4 (100) (39.8, 100.0) n (%) (95%CI)

Q: What about the ORR (850 mg BID (N = 4)) of the same molecule?
A: 0 (0, 60.2) n (%) (95%CI)

Q: And the mPFS (850 mg BID (N = 4))?
A: 2.35 months

Q: What about the mPFS (7 breast cancer patients) of the same molecule?
A: 1.71 months

Q: What about the mPFS (7 patients whose best overall response was PD) of the same molecule?
A: 1.05 months

Q: And the mPFS (10 patients on high-level doses (≥700 mg BID))?
A: 2.35 months

Q: What about the mPFS (14 patients on low-level doses (<700 mg BID)) of the same molecule?
A: 1.80 months

Q: What about the mPFS (17 patients with SD) of the same molecule?
A: 2.79 months

Q: And the “complete response (CR) or partial response (PR)” value (24 subjects of efficacy analysis set)?
A: none of them achieved complete response (CR) or partial response (PR)

Q: And the “BOR, CR” value (Breast cancer (N=7))?
A: 0 n (%)

Q: What about the “BOR, PD” value (Breast cancer (N=7)) of the same molecule?
A: 2 (28.6) n (%)

Q: And the “BOR, PR” value (Breast cancer (N=7))?
A: 0 n (%)

Q: What about the DCR (Breast cancer (N=7)) of the same molecule?
A: 71.4 (29.0, 96.3) n (%) (95%CI)

Q: And the ORR (Breast cancer (N=7))?
A: 0 (0, 41.0) n (%) (95%CI)

Q: What about the mPFS (Breast cancer (N=7)) of the same molecule?
A: 1.71 months

Q: And the “BOR, CR” value (Lung cancer (N=10))?
A: 0 n (%)

Q: What about the “BOR, PD” value (Lung cancer (N=10)) of the same molecule?
A: 4 (40.0) n (%)

Q: And the “BOR, PR” value (Lung cancer (N=10))?
A: 0 n (%)

Q: And the ORR (Lung cancer (N=10))?
A: 0 (0, 30.9) n (%) (95%CI)

Q: What about the mPFS (Lung cancer (N=10)) of the same molecule?
A: 2.12 months

Q: What about the “BOR, CR” value (Other types (N=7)) of the same molecule?
A: 0 n (%)

Q: What about the “BOR, PD” value (Other types (N=7)) of the same molecule?
A: 1 (14.3) n (%)

Q: What about the “BOR, PR” value (Other types (N=7)) of the same molecule?
A: 0 n (%)

Q: What about the DCR (Other types (N=7)) of the same molecule?
A: 85.7 (42.1, 99.6) n (%) (95%CI)

Q: And the ORR (Other types (N=7))?
A: 0 (0, 41) n (%) (95%CI)

Q: What about the mPFS (Other types (N=7)) of the same molecule?
A: 1.91 months

Q: What about the “BOR, CR” value (Overall (N = 24)) of the same molecule?
A: 0 n (%)

Q: And the “BOR, PD” value (Overall (N = 24))?
A: 7 (29.2) n (%)

Q: What about the “BOR, PR” value (Overall (N = 24)) of the same molecule?
A: 0 n (%)

Q: What about the DCR (Overall (N = 24)) of the same molecule?
A: 17 (70.8) (48.9, 87.4) n (%) (95%CI)

Q: And the ORR (Overall (N = 24))?
A: 0 (0, 14.3) n (%) (95%CI)

Q: And the mPFS (Overall (N = 24))?
A: 1.89 months

Q: What about the “median PFS (mPFS)” value (all subjects, PFS events in 24 patients) of the same molecule?
A: 1.89 months

Q: What about the DCR (breast cancer) of the same molecule?
A: 71.4%

Q: And the “disease control rate (DCR)” value (high-level doses (≥700 mg BID, n = 10))?
A: 100%

Q: What about the “disease control rate (DCR)” value (low-level dose group (<700 mg BID, n = 14)) of the same molecule?
A: 50%

Q: And the DCR (lung cancer)?
A: 60%

Q: And the DCR (other cancers)?
A: 85.7%

Q: And the “disease control rate (DCR)” value (overall, 24 patients)?
A: 70.8%

Q: And the mPFS (patients with lung cancer)?
A: 2.12 months

Q: What about the “disease control rate (DCR)” value (recommended dose (700 mg BID, n = 6)) of the same molecule?
A: 100%

Q: And the mPFS (seven patients with other cancer types)?
A: 1.91 months
